The source of these data is PMC12225012, “Identification and Application of a Novel Patulin Degrading Enzyme From Meyerozyma guilliermondii” (Advanced Science, 2025).

The target in the assay is T1, MgSDR1 (Meyerozyma guilliermondii, UniProt A5DPG9).
T1 construct: gene PGUG_05170; pET-30a(+) BamHI/XhoI, N-terminal 6xHis tag, E. coli Rosetta (DE3), imidazole-eluted, approx. 40 kDa with tag; catalytic triad Ser174-Tyr188-Lys192; GXXXGXG and YXXXK motifs
Briefly: degradation kinetics (details in supplement). The conditions noted are these: co-substrate NADPH; pH and temperature of the kinetic assay not given in the main text. It is filed as biochemical.

T1 sequence (A5DPG9 entry or part of it): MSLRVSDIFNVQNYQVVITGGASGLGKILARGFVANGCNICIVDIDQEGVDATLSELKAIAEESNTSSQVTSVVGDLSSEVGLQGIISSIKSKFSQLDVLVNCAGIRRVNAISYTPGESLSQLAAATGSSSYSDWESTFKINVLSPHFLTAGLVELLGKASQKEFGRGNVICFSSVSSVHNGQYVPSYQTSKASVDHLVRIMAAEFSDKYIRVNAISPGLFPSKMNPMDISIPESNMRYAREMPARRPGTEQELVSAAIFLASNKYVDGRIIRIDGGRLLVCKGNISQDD

The term Km denotes the substrate concentration at which the rate is half of its maximum. In the case of `O=C1C=C2C(=CCOC2O)O1` (stereo not shown) [PAT], the Michaelis constant (Km) was 1420 µM.
